Columns and labels:
[1] = tested on: lysozyme; assay: Maillard reaction inhibiting activity test (lysozyme and fructose, dimer formation by SDS-PAGE/densitometry); type: biochemical; conditions: lysozyme 10 mg/ml, fructose 200mM, 0.5M sodium phosphate buffer pH7.4, 37°C, 1 week, inhibition of lysozyme dimer formation; for Inhibiting Activity (%) Concentration (0.2mM): test compound 0.2mM; for Inhibiting Activity (%) Concentration (2mM): test compound 2mM
Protocol: The test compound (0.2mM or 2mM), lysozyme (lOmg/ml) and fructose (200mM) were dissolved in 0.5M sodium phosphate buffer (pH7.4), and the solution was incubated at 37°C for l week. After incubation, the sample was separated by SDS-PAGE and stained with Coomassie Brilliant Blue R-250. The percentage of formed dimer to total proteins was measured by densitometry. Inhibiting activities of the test compounds were evaluated from comparing the percentage of formed dimer in the presence of the test compound with that in the absence of the test compound.

[2] = tested on: Male SD rats; assay: Acute toxicity test; type: in vivo; conditions: for hematological examinations / death: 2000 mg/kg; for death: single administration 2000 mg/kg, until 7 days after administration
Protocol: Male SD rats, 6 weeks of age and weighing between 140g and 165 g, were conditioned to an overnight fast. α -Amino-2 hydroxyphenylacetic acid.hydrochloride suspended in 0.5% of CMC were given to the rats at a dosage of 2000 mg/kg. Control group rats received 0.5% of CMC alone.
Six hours after administration, all rats were allowed free access to food and water. Seven days after administration, blood samples were collected and tested with hematological examinations. Plasma samples were tested with blood biochemical examinations.

[3] = tested on: AGE content in plasma proteins; assay: Inhibition assay for AGE formation in vivo (AGE content in plasma proteins by ELISA using anti-AGE antibody); parameters: species or system male SD rats; conditions: STZ-induced diabetic rats, 4 weeks, relative to untreated rats (as 100% control)
Protocol: Diabetes was induced in male SD rats, 6 weeks of age, by intravenous single injection of streptozotocin (STZ) (50mg/kg) into tail. One week after diabetes induction, α -amino-2-hydroxyphenylacetic acid.hydrochloride or aminoguanidine was given to the diabetic rats by daily oral administration at dosage of 50mg/kg or lOOmg/kg. After 4 weeks of administration, blood samples were collected and AGE content in plasma proteins was measured by ELISA using anti-AGE antibody. AGE content in drug-treated rats were estimated compared with the average content of untreated rats (as 100% control).

[4] = tested on: Male SD rats; assay: Toxicity test by long-term administration; type: in vivo
Protocol: Male SD rats, 6 weeks of age, received STZ (50mg/kg) by single intravenous injection into the tail and were made diabetic. One week after STZ injection, α -amino-2-hydroxyphenylacetic acid-hydrochloride suspended in 0.5% of CMC was given to the diabetic rats by daily oral administration at a dosage of lOOmg/kg. Rats in the control group received O.5% of CMC alone. Compared with the control group, significant reduction in weight and significant increase in number of dead animals were not observed until ten weeks after administration.

[5] = STZ diabetic rats, 100mg/kg daily oral, until ten weeks, versus control group

Row | Structure (SMILES) | Inhibiting Activity (%) Concentration (0.2mM) [1] [%] | Inhibiting Activity (%) Concentration (2mM) [1] [%] | also measured
1 | COc1ccc(O)c(C(N)C(=O)O)c1.Cl (stereo not drawn) [Example 4, α -Amino-2-hydroxy-5-methoxyphenylacetic acid-hydrochloride] | 30.9 | 87.4 | 
2 | NC(CC(=O)O)c1ccccc1O (centres unmarked) [Example 10, 3-Amino-3-(2-hydroxyphenyl)propionic acid] | 15.0 |  | 
3 | COC(=O)C(N)c1cc(O)ccc1O (stereo not drawn) [Example 5, Methyl α -amino-2,5-dihydroxyphenylacetate] |  | 48.3 | 
4 | Cl.NC(C(=O)NCc1ccccc1)c1ccccc1O (stereo not drawn) [Example 8, N-Benzyl-α-amino-2-hydroxyphenylacetamide-hydrochloride] | 13.9 | 55.3 | 
5 | CN(C)C(=O)C(N)c1ccccc1O (stereo not drawn) [Example 6, N,N-Dimethyl-α -amino-2-hydroxyphenylacetamide] | 13.0 | 82.1 | 
6 | CC(C)OC(=O)CCC(N)c1ccccc1O.Cl (centres unmarked) [Example 15, Isopropyl 4-amino-4-(2-hydroxyphenyl)butyrate.hydrochloride] | 2.7 |  | 
7 | Cl.NC(=O)C(N)c1ccccc1O (stereo not drawn) [Example 14, α -Amino-2-hydroxyphenylacetamide-hydrochloride] | 21.4 | 87.6 | 
8 | NC(C(=O)O)c1ccccc1O (single isomer, unassigned) [Example 13, α -Amino-2-hydroxyphenylacetic acid (optical isomer)] | 24.0 | 86.3 | 
9 | NC(C(=O)O)c1ccccc1O (single isomer, unassigned) [Example 12, α -Amino-2-hydroxyphenylacetic acid (optical isomer)] | 22.4 | 83.5 | 
10 | COC(=O)C(N)c1ccccc1O.Cl (stereo not drawn) [Example 2, Methyl α -amino-2-hydroxyphenylacetate-hydrochloride] | 30.6 | 67.5 | 
11 | NC(=O)C(N)c1ccccc1O (stereo not drawn) [Example 7, α -Amino-2-hydroxyphenylacetamide] | 38.7 | 89.3 | 
12 | Cl.NC(C(=O)O)c1ccccc1O (stereo not drawn) [Example 1, α -Amino-2-hydroxyphenylacetic acid.hydrochloride] | 21.2 | 86.1 | blood biochemical examinations ([2]; 2000 mg/kg single dose, seven days after administration, versus control group): no significant difference was observed; hematological examinations ([2]; 2000 mg/kg single dose, seven days after administration, versus control group, listed as α -Amino-2 hydroxyphenylacetic acid.hydrochloride): no significant difference was observed; hematological examinations ([2]; 2000 mg/kg single dose, seven days after administration, versus control group, listed as α -amino-2-hydroxyphenylacetic acid hydrochloride): a significant effect was not observed; behavior disorder ([2]; 2000 mg/kg single dose, until 6 hours after administration): behavior disorder was not observed; death ([2]; listed as α -Amino-2 hydroxyphenylacetic acid.hydrochloride): all animals did not die; death ([2]; listed as α -amino-2-hydroxyphenylacetic acid hydrochloride): no death was observed; AGE content ([3]; 50 mg/kg daily oral): 81.6%; AGE content ([3]; 100mg/kg daily oral): 62.4%; increase in number of dead animals [4, 5]: not observed; reduction in weight [4, 5]: not observed; toxicity and side effects ([4]; rats, 100mg/kg/day for ten consecutive weeks): significant toxicity and side effects were not observed
13 | Cl.NC(C(=O)O)c1cc(Cl)ccc1O (stereo not drawn) [Example 3, α -Amino-5-chloro-2-hydroxyphenylacetic acid-hydrochloride] | 38.8 | 88.4 | 
14 | N=C(N)NN [aminoguanidine, reference compound] | 2.9 | 17.2 | AGE content ([3]; aminoguanidine daily oral, dose not stated in the table (50mg/kg or 100mg/kg per method)): 88.8%
15 | Cl.NC(C(=O)NCCc1ccccc1)c1ccccc1O (stereo not drawn) [Example 9, N-(2-Phenethyl)-α-amino-2-hydroxyphenylacetamidehydrochloride] |  | 80.0 | 

— patent publication EP0839799A1, “2-HYDROXYPHENYLALKYLAMINE DERIVATIVES AND MAILLARD REACTION INHIBITORS” (KISSEI PHARMACEUTICAL CO., LTD., priority 1995, dated 1996)
